According to article PMC3338416, “A Chemocentric Approach to the Identification of Cancer Targets” (PLoS ONE, 2012):

Key:
[1] = test system: HCT116 cells; assay: High-throughput resazurin (Alamar blue) cytotoxicity / antiproliferative assay on tumor HCT116 cells; format: cell-based, human; conditions: for effect on proliferation of HCT116 cells: dose-response curves (Figure S4)
Description: (§1) A colon adenocarcinoma (HCT116) and normal human lung fibroblast (MRC-5) cell lines were purchased from the American Type Culture Collection (ATCC, Manassas, VA). HCT116 cells were maintained in McCoy's 5a Modified Medium supplemented with 10% FBS, 100 units/ml penicillin, and 100 µg/ml streptomycin at 37°C in a humidified 5% CO2 incubator. Subculturing was done using 1∶5 ratio twice a week. MRC-5 cells were maintained in DMEM supplemented with 10% FBS, 100 units/ml penicillin, and 100 µg/ml streptomycin at 37°C in a humidified 5% CO2 incubator. Subculturing was done using 1∶3 ratio twice a week. A cell bank was established for the cell lines used during the differential toxicity screening campaign.
The high-throughput in vitro assay for measuring toxicity and antiproliferative effects of small molecules was implemented as described earlier. Cell lines were grown in culture flasks to 90% confluences, then harvested in counted cell density and seeded into 384-well microtiter plates. Test compounds were then added in various concentrations (in 2% DMSO final concentration) and incubated with the cells in CO2 incubators at 37°C for 48 h. […] During this period, FBS content of the medium was decreased to avoid the masking effect of FBS on toxicity. Detection of viability is based on the reduction of resazurin (Alamar blue) by living cells, resulting in an increased fluorescent signal. For the transformation of the assay into a high-throughput format, a Beckman Biomek liquid handling system and a Wallac Victor plate reader were used. Protocols needed for handling the 384-well plates were established for both single-concentration screening and dose-response curve determination. A plate map was used for the validation of the assay on 384-well plates, which is suitable for the determination of dose-response curves for 16 compounds at the same time using 6 concentrations in triplicate. This experiment was run in parallel on 5 plates and repeated three times on different days. From the dose-response curves, IC50 values were determined and analyzed. […] Based on the established assay protocol, single-point screenings were done at 50 µM compound concentration in duplicate. Likewise, IC50 values were obtained from the toxicity dose-response curves from six compound concentrations in duplicate and calculated with Microcal Origin 5.0.

[2] = test system: MRC-5 cells; assay: High-throughput resazurin (Alamar blue) cytotoxicity / antiproliferative assay on normal MRC-5 cells; format: cell-based, human; conditions: dose-response curves (Figure S4)
Description: as §1, with “A cell bank was established for the cell lines used during the differential toxicity screening campaign.” left out
The high-throughput in vitro assay for measuring toxicity and antiproliferative effects of small molecules was implemented as described earlier. Cell lines were grown in culture flasks to 90% confluences, then harvested in counted cell density and seeded into 384-well microtiter plates. […] For the transformation of the assay into a high-throughput format, a Beckman Biomek liquid handling system and a Wallac Victor plate reader were used. […] From the dose-response curves, IC50 values were determined and analyzed. To test the reproducibility and robustness of the assay for high-throughput screening, Z′ factors (∼0.72) and S/B ratios (∼10) were determined and the respective plate-to-plate and day-to-day coefficients of variation found to be 5.0%, 2.7%, 1.7% and 5.6%. […]

[3] = target: amine oxidase flavin-containing B enzyme (MAO-B); design: method as in PMID 19933261; conditions: reported in PubChem; cited from earlier work
[4] = test system: colon HCT116 cell lines; design: method as in PMID 19933261; conditions: cited from earlier work
[5] = test system: HCT116 cell lines; design: method as in PMID 21617858; conditions: read-out: IC50, growth of HCT116 cell lines; cited from earlier work
[6] = test system: HCT116 cell; design: method as in PMID 19139018; conditions: cited from earlier work

Compound: C=CCNC1=C2C[C@@H](C)C[C@H](OC)[C@H](O)[C@@H](C)/C=C(\C)[C@H](OC(N)=O)[C@@H](OC)/C=C\C=C(/C)C(=O)NC(=CC1=O)C2=O [17AAG, 17-(allylamino)-17-demethoxygeldanamycin]
- IC50 ([1]; 48 h incubation, dose-response, six concentrations in duplicate): 0.2 µM
- fold selectivity relative to the antiproliferative effect on MRC-5 cells ([1]; IC50(MRC-5)/IC50(HCT116)): 93 fold
- effect on proliferation of HCT116 cells [1]: inhibited the proliferation of HCT116 cells in a dose dependent manner
- effect on MRC-5 cells [2]: little or no effect

Compound: O=C1c2ccccc2-c2nc(-c3cccc([N+](=O)[O-])c3)nnc21 [NSC680350]
- IC50 [3]: 0.08 µM
- pGI50 obtained in this work on HCT116 cell lines [1]: 5.19
- GI50 ([1]; dose-response curve, Figure S5, read-out: GI50 on HCT116 cell lines): 6.4 µM
- pGI50 for colon HCT116 cell lines reported in PubChem [4]: 4.64

Compound: O=C(CCCCCCC(=O)Nc1ccccc1)NO [SAHA, suberoylanilide hydroxamic acid]
- effect on proliferation of HCT116 cells [1]: inhibited the proliferation of HCT116 cells in a dose dependent manner
- effect on MRC-5 cells [2]: little or no effect

Compound: CN(C)C/C=C/C(=O)Nc1cc2c(Nc3ccc(F)c(Cl)c3)ncnc2cc1O[C@H]1CCOC1 [afatinib]
- IC50 [5]: 1.62 µM

Compound: O=C(c1ccc(OCCN2CCCCC2)cc1)c1c(-c2ccc(O)cc2)sc2cc(O)ccc12 [raloxifene]
- inhibition of HCT116 cell growth [6]: inhibit HCT116 cell growth in a dose-dependent manner
